In patent publication US10562912B2 (C&C Research Laboratories, priority 2013, dated 2020):

Key:
Type in all cases: cell-based
[1] = tested on: LNCaP; assay: Cell growth inhibition assay, prostate cancer cell line LNCaP (medium with 10 ng/mL IL-6); conditions: Homo sapiens, medium supplemented with 10 ng/mL of IL-6, 10,000 cells/well
[2] = molecular target: T1, STAT3 (Homo sapiens, UniProt P40763); assay: STAT3 reporter gene assay (luciferase), LNCaP stable cell line (pSTAT3-TA-luc), IL-6 stimulation
T1 construct: plasmid pSTAT3-TA-luc), which contains a stably operating STAT3 promoter; endogenous in cells
Method in brief: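 LNCaP cells stably carrying pSTAT3-TA-luc, in RPMI1640 with 3% DCC-FBS, were treated with compound and then stimulated with 10 ng/mL IL-6 for 24–48 h at 37 °C. Luciferase activity was measured in lysates. A parallel plate measured viability by CellTiter-Glo, with stimulated 0.1% DMSO wells as the positive control.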

[3] = tested on: AGS; assay: Cell growth inhibition assay, stomach cancer cell line AGS; conditions: Homo sapiens; AGS stomach cancer cell line, 3,000 cells/well
Protocol: The inhibitory effects of the compounds of the present invention against the growth of cancer cells were evaluated as shown below. The cancer cell lines including stomach cancer cell line (AGS), breast cancer cell lines (MDA-MB-231, MDA-MB-468, and BT-549), prostate cancer cell lines (LNCaP and DU-145), colon cancer cell line (HCT116), ovarian cancer cell line (SW626), liver cancer cell line (Hep3B), kidney cancer cell line (ACHN), lung cancer cell line (NCI-H23) and blood cancer cell lines (HEL92.1.7 and U266) were cultured under the protocol provided by each supplier. A medium supplemented with 10 ng/mL of IL-6 was used for LNCaP, a prostate cancer cell line, when treated with a drug. Each type of cells to be used in experiments were sub-cultured in a 96-well plate by counting the exact number of cells using Tali™ Image-based Cytometer (Life Technologies). In a 96-well plate, AGS, HCT116, and DU-145 were employed with 3,000 cells/well; NCI-H23, SW626, Hep3B, ACHN, BT-549, MDA-MB-231, HEL92.1.7, and U266 were employed with 5,000 cells/well; and LNCaP and MDA-MB-468 were employed with 10,000 cells/well. The cells were treated with the compounds listed in Examples which were diluted in various concentrations. Upon completion of the compounds treatment, AGS, HCT116, SW626, DU145, NCI-H23, Hep3B, ACHN, BT-549, LNCaP, HEL92.1.7, and U266 cells were cultured at 37° C. under 5% CO2 for from 72 to 96 hours, and MDA-MB-231 and MDA-MB-468 cells were cultured at 37° C. in air for from 72 to 96 hours. Subsequently, the cells were observed under microscope and drug precipitation and particular findings were investigated and recorded. And then, the 96-well plate was placed at room temperature for 30 minutes, added with 20 μL/well of CellTiter-Glo solution (Cat No. G7573, Promega) and shaken for 10 minutes, followed by being subjected to the measurement using PHERAstar™ microplate reader (BMG LABTECH) according to the supplier's general luminometer protocol. Wells where only culture liquid added without cell plating were used as a negative control, whereas wells where culture liquid containing 0.1% DMSO instead of the compounds listed in Examples were used as a positive control.

T1 sequence (P40763 whole entry): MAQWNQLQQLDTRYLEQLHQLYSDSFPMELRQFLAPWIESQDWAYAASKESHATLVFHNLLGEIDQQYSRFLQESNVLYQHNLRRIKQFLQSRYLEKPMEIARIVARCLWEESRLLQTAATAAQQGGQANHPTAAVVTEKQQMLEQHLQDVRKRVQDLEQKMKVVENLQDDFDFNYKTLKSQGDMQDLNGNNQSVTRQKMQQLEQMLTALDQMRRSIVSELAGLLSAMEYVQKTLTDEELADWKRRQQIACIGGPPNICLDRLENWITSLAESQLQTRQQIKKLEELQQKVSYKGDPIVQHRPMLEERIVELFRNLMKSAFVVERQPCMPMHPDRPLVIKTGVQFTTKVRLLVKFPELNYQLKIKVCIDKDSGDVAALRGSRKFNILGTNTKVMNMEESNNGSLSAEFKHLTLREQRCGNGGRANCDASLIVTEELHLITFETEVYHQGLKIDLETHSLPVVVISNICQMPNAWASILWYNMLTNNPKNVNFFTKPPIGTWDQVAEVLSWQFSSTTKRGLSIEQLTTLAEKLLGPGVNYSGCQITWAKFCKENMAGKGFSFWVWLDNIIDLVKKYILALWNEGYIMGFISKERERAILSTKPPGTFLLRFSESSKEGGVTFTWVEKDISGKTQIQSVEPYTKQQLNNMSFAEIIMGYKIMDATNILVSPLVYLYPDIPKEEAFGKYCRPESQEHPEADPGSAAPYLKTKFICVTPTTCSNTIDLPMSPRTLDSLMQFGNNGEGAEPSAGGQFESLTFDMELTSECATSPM

Row | IC50 [1] [µM] | IC50 [2] [µM] | IC50 [3] [µM] | Structure (SMILES)
1 | > 10 | > 10 | > 50 | O=C(O)COc1ccc2cc(C(=O)Nc3cccc(-c4ccc(F)cc4F)c3)[nH]c2c1 [Example 256, 2-((2-((2′,4′-difluoro-[1,1′-biphenyl]-3-yl)carbamoyl)-1H-indol-6-yl)oxy)acetic acid]
2 | > 10 | > 10 | 30.6 | O=C(Nc1cccc(-c2ccc(F)cc2C(F)(F)F)c1)c1cc2ccc([N+](=O)[O-])cc2[nH]1 [Example 244, N-(4′-fluoro-2′-(trifluoromethyl)-[1,1′-biphenyl]-3-yl)-6-nitro-1H-indole-2-carboxamide]
3 | > 10 | > 10 | 11.4 | O=C(Nc1cccc(-c2ccccc2C(F)(F)F)c1)c1cc2ccc([N+](=O)[O-])cc2n1CCN1CCOCC1 [Example 252, 1-(2-morpholinoethyl)-6-nitro-N-(2′-(trifluoromethyl)-[1,1′-biphenyl]-3-yl)-1H-indole-2-carboxamide]
4 | > 10 | > 10 | 23.8 | COc1ccc(C(F)(F)F)c(-c2cccc(NC(=O)c3cc4ccc([N+](=O)[O-])cc4[nH]3)c2)c1 [Example 282, N-(5′-methoxy-2′-(trifluoromethyl)-[1,1′-biphenyl]-3-yl)-6-nitro-1H-indole-2-carboxamide]
5 | > 10 | > 10 | 26.7 | Cc1c(C(=O)Nc2cccc(-c3ccccc3C(F)(F)F)c2)n(CCN2CCOCC2)c2ccc([N+](=O)[O-])cc12 [Example 251, 3-methyl-1-(2-morpholinoethyl)-5-nitro-N-(2′-(trifluoromethyl)-[1,1′-biphenyl]-3-yl)-1H-indole-2-carboxamide]
6 | > 10 | > 10 | 20.5 | O=C(Nc1cccc(-c2ccccc2C(F)(F)F)c1)c1nc2ccc([N+](=O)[O-])cc2s1 [Example 232, 6-nitro-N-(2′-(trifluoromethyl)-[1,1′-biphenyl]-3-yl)benzo[d]thiazole-2-carboxamide]
7 | 2.7 | 1.7 | 2.7 | CN(C(=O)c1cc2ccc(NS(C)(=O)=O)cc2[nH]1)c1cccc(-c2ccc(F)cc2F)c1 [Example 280, N-(2′,4′-difluoro-[1,1′-biphenyl]-3-yl)-N-methyl-6-(methylsulfonamido)-1H-indole-2-carboxamide]
8 | > 10 | 6.2 | 40.7 | CS(=O)(=O)Nc1ccc2cc(C(=O)Nc3cc(-c4ccc(F)cc4F)ccn3)[nH]c2c1 [Example 279, N-(4-(2,4-difluorophenyl)pyridin-2-yl)-6-(methylsulfonamido)-1H-indole-2-carboxamide]
9 | 1.56 | > 10 | 1.6 | O=C(Nc1cccc(-c2ccccc2C(F)(F)F)c1)c1nc2cc([N+](=O)[O-])ccc2[nH]1 [Example 234, 5-nitro-N-(2′-(trifluoromethyl)-[1,1′-biphenyl]-3-yl)-1H-benzo[d]imidazole-2-carboxamide]
10 | 2.8 | 1.8 | 5.8 | CN(c1ccc2cc(C(=O)Nc3cccc(-c4ccccc4C(F)(F)F)c3)n(C)c2c1)S(C)(=O)=O [Example 343, 1-methyl-6-(N-methylmethylsulfonamido)-N-(2′-(trifluoromethyl)-[1,1′-biphenyl]-3-yl)-1H-indole-2-carboxamide]
11 | > 10 | > 10 | > 50 | CS(=O)(=O)Nc1ccc2cc(C(=O)Nc3cccc(S(=O)(=O)c4ccc5c(=O)ccoc5c4)c3)[nH]c2c1 [Example 413, 6-(methylsulfonamido)-N-(3-((4-oxo-4H-chromen-7-yl)sulfonyl)phenyl)-1H-indole-2-carboxamide]
12 | > 10 | > 10 | > 50 | COc1ccc(-c2cccc(NC(=O)c3cc4ccc(NS(C)(=O)=O)cc4n3C(=O)OC(C)(C)C)c2)c(F)c1 [Example 296, tert-butyl 2-((2′-fluoro-4′-methoxy-[1,1′-biphenyl]-3-yl)carbamoyl)-6-(methylsulfonamido)-1H-indole-1-carboxylate]
13 | 1.8 | 0.38 | 2.1 | CS(=O)(=O)Nc1ccc2cc(C(=O)Nc3cccc(-c4ccc(F)cc4C(F)(F)F)c3)[nH]c2c1 [Example 277, N-(4′-fluoro-2′-(trifluoromethyl)-[1,1′-biphenyl]-3-yl)-6-(methylsulfonamido)-1H-indole-2-carboxamide]
14 | > 10 | > 10 | 18.1 | CCOC(=O)COc1ccc2cc(C(=O)Nc3cccc(-c4ccc(F)cc4F)c3)[nH]c2c1 [Example 255, ethyl 2-((2-((2′,4′-difluoro-[1,1′-biphenyl]-3-yl)carbamoyl)-1H-indol-6-yl)oxy)acetate]
15 | 3.2 | 2 | 9.2 | CN(C)S(=O)(=O)Nc1ccc2cc(C(=O)Nc3cccc(-c4ccccc4C(F)(F)F)c3)[nH]c2c1 [Example 267, 6-((N,N-dimethylsulfamoyl)amino)-N-(2′-(trifluoromethyl)-[1,1′-biphenyl]-3-yl)-1H-indole-2-carboxamide]
16 | > 10 | 3.1 | 43.1 | COC(=O)c1ccc(Cl)c(-c2cccc(NC(=O)c3cc4ccc(NS(C)(=O)=O)cc4[nH]3)c2)c1 [Example 299, methyl 6-chloro-3′-(6-(methylsulfonamido)-1H-indole-2-carboxamido)-[1,1′-biphenyl]-3-carboxylate]
17 | > 10 | > 10 | 15.2 | COc1cc(C(F)(F)F)c(-c2cccc(NC(=O)c3cc4ccc(NS(C)(=O)=O)cc4[nH]3)c2)cc1C(N)=O [Example 377, N-(5′-carbamoyl-4′-methoxy-2′-(trifluoromethyl)-[1,1′-biphenyl]-3-yl)-6-(methylsulfonamido)-1H-indole-2-carboxamide]
18 | > 10 | > 10 | 30.3 | CS(=O)(=O)Nc1ccc2cc(C(=O)Nc3cccc(S(=O)(=O)c4cccnc4)c3)[nH]c2c1 [Example 404, 6-(methylsulfonamido)-N-(3-(pyridin-3-ylsulfonyl)phenyl)-1H-indole-2-carboxamide]
19 | > 10 | 2.9 | 17.3 | CS(=O)(=O)Nc1ccc2cc(C(=O)Nc3cccc(S(=O)(=O)c4ccc5sccc5c4)c3)[nH]c2c1 [Example 409, N-(3-(benzo[b]thiophen-5-ylsulfonyl)phenyl)-6-(methylsulfonamido)-1H-indole-2-carboxamide]
20 | > 10 | > 10 | 30 | O=C(Nc1cccc(-c2ccccc2C(F)(F)F)c1)c1cc2cc([N+](=O)[O-])ccc2[nH]1 [Example 227, 5-nitro-N-(2′-(trifluoromethyl)-[1,1′-biphenyl]-3-yl)-1H-indole-2-carboxamide]
21 | 2.6 | 0.5 | 18.8 | CS(=O)(=O)Nc1ccc2[nH]c(C(=O)Nc3cccc(-c4ccc(F)cc4F)c3)cc2c1 [Example 272, N-(2′,4′-difluoro-[1,1′-biphenyl]-3-yl)-5-(methylsulfonamido)-1H-indole-2-carboxamide]
22 | 9.8 | 5.3 | > 50 | CS(=O)(=O)Nc1ccc2c(c1)NC(C(=O)Nc1cccc(-c3ccc(F)cc3C(F)(F)F)c1)C2 (stereo not drawn) [Example 262, N-(4′-fluoro-2′-(trifluoromethyl)-[1,1′-biphenyl]-3-yl)-6-(methylsulfonamido)indoline-2-carboxamide]
23 | > 10 | 5.3 | > 50 | COC(=O)c1ccc(Cl)c(-c2ccnc(NC(=O)c3cc4ccc(NS(C)(=O)=O)cc4[nH]3)c2)c1 [Example 300, methyl 4-chloro-3-(2-(6-(methylsulfonamido)-1H-indole-2-carboxamido)pyridin-4-yl)benzoate]

Row | Structure (SMILES) | IC50 [1] [µM] | IC50 [2] [µM] | IC50 [3] [µM]
24 | CC(C)COc1cc(NC(=O)c2cc3ccc(NS(C)(=O)=O)cc3[nH]2)cc(C(F)(F)c2cccc(C#N)c2)c1 [Example 392, N-(3-((3-cyanophenyl)difluoromethyl)-5-isobutoxyphenyl)-6-(methylsulfonamido)-1H-indole-2-carboxamide] | 8.3 | 1.8 | 9
